Measured values reported in the supplement of paper PMC10307832.

Tests used:
Assay in all cases: relative viability (nuclei count vs DMSO), 5 days (fraction); higher = more cells survive
Calu-6 = test system: Calu-6
Procedure, shortened: (§1)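 Lung cancer cell lines in 1536-well plates were dosed by pin tool the day after seeding, either with one drug alone or with a fixed anchor-drug dose plus five library-drug doses (not always all listed) in √10 steps. After 5 days, cells were fixed and their nuclei stained in one step (final 0.05% Triton X-100, 1% formaldehyde, 1 ug/ml Hoechst), then counted on 4× images. Relative viability is the nuclei count in treated wells divided by that in vehicle wells. Values are medians of duplicate plates.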

EBC-1 = test system: EBC-1
Procedure, shortened: as §1

EKVX = test system: EKVX
Procedure, shortened: as §1

A549 = test system: A549
Procedure, shortened: as §1

NCI-H1666 = test system: NCI-H1666
Procedure, shortened: as §1

LC-2-ad = test system: LC-2-ad
Procedure, shortened: as §1

ChaGo-K-1 = test system: ChaGo-K-1
Procedure, shortened: as §1

NCI-H1703 = test system: NCI-H1703
Procedure, shortened: as §1

NCI-H1299 = test system: NCI-H1299
Procedure, shortened: as §1

IA-LM = test system: IA-LM
Procedure, shortened: as §1

## CCNC(=O)c1noc(-c2cc(C(C)C)c(O)cc2O)c1-c1ccc(CN2CCOCC2)cc1 [Luminespib] + CC1(C)CCC(c2ccc(Cl)cc2)=C(CN2CCN(c3ccc(C(=O)NS(=O)(=O)c4ccc(N[C@H](CCN5CCOCC5)CSc5ccccc5)c(S(=O)(=O)C(F)(F)F)c4)cc3)CC2)C1 [Navitoclax] (partner 0.5 µM)
Calu-6; first compound 0.002 µM
  relative viability: 0.836
Calu-6; first compound 0.006325 µM
  relative viability: 0.772
Calu-6; first compound 0.02 µM
  relative viability: 1.08
Calu-6; first compound 0.06325 µM
  relative viability: 0.116
Calu-6; first compound 0.2 µM
  relative viability: 0.107
EBC-1; first compound 0.002 µM
  relative viability: 0.489
EBC-1; first compound 0.006325 µM
  relative viability: 0.488
EBC-1; first compound 0.02 µM
  relative viability: 0.241
EBC-1; first compound 0.06325 µM
  relative viability: 0.142
EBC-1; first compound 0.2 µM
  relative viability: 0.133
EKVX; first compound 0.002 µM
  relative viability: 0.922
EKVX; first compound 0.006325 µM
  relative viability: 0.801
EKVX; first compound 0.02 µM
  relative viability: 0.677
EKVX; first compound 0.06325 µM
  relative viability: 0.518
EKVX; first compound 0.2 µM
  relative viability: 0.0817
A549; first compound 0.002 µM
  relative viability: 1.22
A549; first compound 0.006325 µM
  relative viability: 1.15
A549; first compound 0.02 µM
  relative viability: 1.11
A549; first compound 0.06325 µM
  relative viability: 0.0452
A549; first compound 0.2 µM
  relative viability: 0.0433
NCI-H1666; first compound 0.002 µM
  relative viability: 0.807
NCI-H1666; first compound 0.006325 µM
  relative viability: 0.97
NCI-H1666; first compound 0.02 µM
  relative viability: 1.29
NCI-H1666; first compound 0.06325 µM
  relative viability: 0.913
NCI-H1666; first compound 0.2 µM
  relative viability: 0.554
LC-2-ad; first compound 0.002 µM
  relative viability: 0.41
LC-2-ad; first compound 0.006325 µM
  relative viability: 0.483
LC-2-ad; first compound 0.02 µM
  relative viability: 0.516
LC-2-ad; first compound 0.06325 µM
  relative viability: 0.0848
LC-2-ad; first compound 0.2 µM
  relative viability: 0.126
ChaGo-K-1; first compound 0.002 µM
  relative viability: 1.1
ChaGo-K-1; first compound 0.02 µM
  relative viability: 0.932
ChaGo-K-1; first compound 0.06325 µM
  relative viability: 0.41
ChaGo-K-1; first compound 0.2 µM
  relative viability: 0.311
NCI-H1703; first compound 0.002 µM
  relative viability: 1.34
NCI-H1703; first compound 0.006325 µM
  relative viability: 0.925
NCI-H1703; first compound 0.02 µM
  relative viability: 0.371
NCI-H1703; first compound 0.06325 µM
  relative viability: 0.147
NCI-H1703; first compound 0.2 µM
  relative viability: 0.138
NCI-H1299; first compound 0.002 µM
  relative viability: 1.03
NCI-H1299; first compound 0.006325 µM
  relative viability: 1.01
NCI-H1299; first compound 0.02 µM
  relative viability: 1.07
NCI-H1299; first compound 0.06325 µM
  relative viability: 0.975
NCI-H1299; first compound 0.2 µM
  relative viability: 0.295
IA-LM; first compound 0.002 µM
  relative viability: 0.752
IA-LM; first compound 0.006325 µM
  relative viability: 0.792
IA-LM; first compound 0.02 µM
  relative viability: 0.549
IA-LM; first compound 0.06325 µM
  relative viability: 0.061
IA-LM; first compound 0.2 µM
  relative viability: 0.058

## Cc1cn(-c2cc(NC(=O)c3ccc(C)c(Nc4nccc(-c5cccnc5)n4)c3)cc(C(F)(F)F)c2)cn1 [Nilotinib] + CS(=O)(=O)N1CCN(Cc2cc3nc(-c4cccc5[nH]ncc45)nc(N4CCOCC4)c3s2)CC1 [Pictilisib] (partner 1 µM)
Calu-6; first compound 0.001 µM
  relative viability: 0.893
Calu-6; first compound 0.003162 µM
  relative viability: 0.919
Calu-6; first compound 0.01 µM
  relative viability: 1.06
Calu-6; first compound 0.03162 µM
  relative viability: 0.864
Calu-6; first compound 0.1 µM
  relative viability: 0.827
EBC-1; first compound 0.003162 µM
  relative viability: 0.287
EBC-1; first compound 0.01 µM
  relative viability: 0.313
EBC-1; first compound 0.03162 µM
  relative viability: 0.289
EBC-1; first compound 0.1 µM
  relative viability: 0.253
EKVX; first compound 0.001 µM
  relative viability: 0.486
EKVX; first compound 0.003162 µM
  relative viability: 0.588
EKVX; first compound 0.01 µM
  relative viability: 0.531
EKVX; first compound 0.03162 µM
  relative viability: 0.344
EKVX; first compound 0.1 µM
  relative viability: 0.552
A549; first compound 0.003162 µM
  relative viability: 0.743
A549; first compound 0.01 µM
  relative viability: 0.6
A549; first compound 0.03162 µM
  relative viability: 0.368
A549; first compound 0.1 µM
  relative viability: 0.374
NCI-H1666; first compound 0.001 µM
  relative viability: 0.348
NCI-H1666; first compound 0.003162 µM
  relative viability: 0.319
NCI-H1666; first compound 0.01 µM
  relative viability: 0.373
NCI-H1666; first compound 0.03162 µM
  relative viability: 0.463
NCI-H1666; first compound 0.1 µM
  relative viability: 0.397
LC-2-ad; first compound 0.001 µM
  relative viability: 0.385
LC-2-ad; first compound 0.003162 µM
  relative viability: 0.518
LC-2-ad; first compound 0.01 µM
  relative viability: 0.547
LC-2-ad; first compound 0.03162 µM
  relative viability: 0.379
LC-2-ad; first compound 0.1 µM
  relative viability: 0.117
ChaGo-K-1; first compound 0.001 µM
  relative viability: 1.22
ChaGo-K-1; first compound 0.003162 µM
  relative viability: 0.581
ChaGo-K-1; first compound 0.01 µM
  relative viability: 0.654
ChaGo-K-1; first compound 0.03162 µM
  relative viability: 0.315
ChaGo-K-1; first compound 0.1 µM
  relative viability: 0.444
NCI-H1703; first compound 0.001 µM
  relative viability: 0.225
NCI-H1703; first compound 0.003162 µM
  relative viability: 0.291
NCI-H1703; first compound 0.01 µM
  relative viability: 0.19
NCI-H1703; first compound 0.03162 µM
  relative viability: 0.215
NCI-H1703; first compound 0.1 µM
  relative viability: 0.196
NCI-H1299; first compound 0.001 µM
  relative viability: 0.611
NCI-H1299; first compound 0.003162 µM
  relative viability: 1.12
NCI-H1299; first compound 0.01 µM
  relative viability: 0.887
NCI-H1299; first compound 0.03162 µM
  relative viability: 0.495
NCI-H1299; first compound 0.1 µM
  relative viability: 0.396
IA-LM; first compound 0.001 µM
  relative viability: 0.36
IA-LM; first compound 0.003162 µM
  relative viability: 0.431
IA-LM; first compound 0.01 µM
  relative viability: 0.426
IA-LM; first compound 0.03162 µM
  relative viability: 0.209
IA-LM; first compound 0.1 µM
  relative viability: 0.41
